Laboratory results as given in PubChem BioAssay (NCI).
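Each compound was tested at five concentrations against cells in 96-well plates for 48 hours. The concentration for full growth arrest is given as TGI.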

Tests used:
Assay in all cases: NCI tumour cell line growth inhibition, 48 h
[1] = tested on: XF 498 CNS
[2] = tested on: DMS 114 small cell lung
[3] = tested on: M19-MEL melanoma
[4] = tested on: LXFL 529 NSCLC
[5] = tested on: KM20L2 colon
[6] = tested on: DMS 273 small cell lung
[7] = tested on: DLD-1 colon
[8] = tested on: P388/ADR leukemia
[9] = tested on: SNB-78 CNS
[10] = tested on: P388 leukemia
[11] = tested on: SN12K1 renal

Measured: TGI

Cc1ccc(/C(O)=C/c2nc3c(nc2NC24CC5CC(CC(C5)C2)C4)c(=O)oc2ccccc23)cc1
not listed: [8] | [9] | [10] | [11]
> 100 µM: all other assays above

O=P1(Oc2ccc(Cl)cc2Cl)Oc2ccc3ccccc3c2-c2c(ccc3ccccc23)O1
43.1 µM: [11]
> 93.2 µM: [6]
> 100 µM: [8] | [10] | [7]
> 76.2 µM: [5]
47.9 µM: [3]
56.7 µM: [1]
> 83.8 µM: [9]

COc1cc2cc3c4cc(OC)c(OC)cc4cc[n+]3cc2cc1OC
6.6 µM: [2]
not listed: [4]
> 100 µM: all other assays above

COc1ccc(N2C(=O)[C@H]3[C@H]4CC(C(C)(C)C)CC[C@H]4c4c(n(C)c5ccccc45)[C@H]3C2=O)cc1 (some centres undefined)
> 100 µM: [1] | [2] | [3] | [4] | [6] | [7]

COc1ccc(C2SCC(=O)N2NC(=O)c2ccncc2)cc1F (centres undefined)
not listed: [3] | [8] | [10] | [11]
> 100 µM: all other assays above
